Experimental data: patent publication US20260048145A1, “COMPOSITIONS AND METHODS FOR TREATING DRUG ADDICTION” (The Children's Medical Center Corporation, priority 2022, published 2026)

How the values were obtained:
[1] = system: hM3Dq-expressing Tac2+ neurons; assay: cFos induction after CNO, chemogenetic activation; format: in vivo, mice; conditions: CNO 2 mg/kg i.p.
Description: Mice were transcardially perfused with PBS followed by 4% paraformaldehyde. Brains were then placed in a 30% sucrose solution for 2 days. The brains were frozen in Optimal Cutting Temperature (OCT) embedding media and 16 μm (for FISH) or 40 μm (for IF) coronal sections were cut with a vibratome (Leica, no. CM3050 S). For FISH experiments, the slices were mounted on SuperFrost Plus slides, and air dried. The multi-color FISH experiments were performed following the instructions of RNAscope Fluorescent Multiplex Assay (ACD Bioscience). For IF, cryostat sections were collected and incubated overnight with blocking solution (1×PBS containing 5% goat serum, 2.5% BSA, and 0.1% Triton X-100), and then treated with the following primary antibodies, diluted with blocking solution, for 1 day at 4° C.: rabbit anti-cFos (1:2000, Synaptic systems, #226003), chicken anti-GFP (1:2000, Aves Labs, no. GFP-1010), and chicken anti-mCherry (1:2000, Novus Biologicals, no. NBP2-25158). Samples were then washed three times with washing buffer (1×PBS containing 0.1% Triton X-100) and incubated with the Alexa Fluor conjugated secondary antibodies for 2 h at room temperature. The sections were mounted and imaged using a Zeiss LSM800 confocal microscope or an Olympus VS120 Slide Scanning System. […]

[2] = system: hM4Di-expressing Tac2+ neurons; assay: cFos induction after CNO following cocaine exposure, chemogenetic inhibition; format: in vivo, mice; conditions: CNO 5 mg/kg i.p.
[3] = system: hM3Dq-expressing Tac2+ neurons; assay: Cocaine-CPP with chemogenetic excitation of Tac2+ neurons; format: in vivo; conditions: CNO 2 mg/kg plus cocaine 15 mg/kg; hM3Dq-expressing mice
Description: (§1) To this end, a Cre-dependent AAV encoding a modified human M3 muscarinic receptor (hM3Dq) was introduced into NAc of Tac2-Cre mice (FIG. 5E). […] The cocaine-CPP test was then repeated, in which mice were conditioned with cocaine plus CNO in one chamber, while with saline in the other chamber. […] To test the effect of Tac2 neuronal inhibition on cocaine-CPP, a subthreshold cocaine CPP paradigm was applied, in which mice were conditioned with a lower dose of cocaine (10 mg/kg i.p.) in a shorter conditioning session (15-minutes per session)^10,46.
(§2) A two-compartment CPP chamber was used with one compartment with grid rod style floor and the other with mesh style floor (Med Associates). Chamber size is 25×19×17 cm (L×D×H). Mice trajectories were tracked by infra-red photobeam detectors, and the travel distance and the duration the mice spent in the two compartments were recorded. […]
(§3) For hM3Dq chemogenetics experiments, the Tac2-Cre mice were conditioned for two days to saline/saline injections in one chamber in the morning, and CNO (2 mg/kg)/cocaine (15 mg/kg) injection in the other in the afternoon (30 minutes confinement, 6 hours apart). […] The time spent in the cocaine-coupled chambers was recorded, and the CPP scores were calculated by subtracting the time spent in the pre-conditioning phase from the time spent in the post-conditioning phase.

[4] = system: hM4Di-expressing Tac2+ neurons; assay: Subthreshold cocaine-CPP with chemogenetic inhibition of Tac2+ neurons; format: in vivo, mice; conditions: CNO 5 mg/kg i.p.; cocaine 10 mg/kg i.p., 15-minutes sessions
Description: as §1, §2, §3

[5] = system: Tac2+ neurons (hM3Dq / hM4Di); assay: Basal and cocaine-induced locomotion with chemogenetic manipulation of Tac2+ neurons; format: in vivo; conditions: CNO; hM3Dq or hM4Di mice; 1-hour post-treatment
Description: The experiment was conducted in an 8-chamber activity monitor system (Med Associates). Each test chamber (ENV-510 boxes) consists of a 27 cm×27 cm square base and 24-cm walls. […] Activity Monitor software (Med Associates) was used to generate trajectory maps. The distance traveled in the arena, and time spent in the center part of the arena, were recorded and analyzed. After each test session, the chambers were cleaned thoroughly with 20% ethanol.
The basal level of locomotion as well as cocaine-induced change of locomotor activity were assessed in the open field arena the same as the OFT. For chemogenetics experiments, 20 minutes after administration of either saline or CNO, mice were individually placed in the center of the test chamber, triggering the infra-red tracking system to record locomotor activity, as measured by the number of beam breaks. […] Different groups of mice were balanced across the 8 chambers to avoid potential environmental bias.

[6] = system: hM3Dq-expressing Tac2+ neurons; assay: Cocaine intravenous self-administration (cocaine-IVSA) with chemogenetic excitation; conditions: CNO 2 mg/kg
[7] = system: hM4Di-expressing Tac2+ neurons; assay: Cocaine intravenous self-administration (cocaine-IVSA) with chemogenetic inhibition; conditions: CNO 5 mg/kg
NAc Tac2+ neurons [8] = assay: Single-cell calcium imaging of Tac2+ neurons following acute cocaine injection; format: in vivo, mice; conditions: for recorded Tac2+ neurons showing decreased activity / recorded Tac2+ neurons showing increased activity: cocaine 15 mg/kg i.p.
Excerpt: To explore a potential role for Tac2^+ neurons in drug-related behavior, Tac2 neuronal activity was monitored using single-cell calcium imaging upon psychostimulant drug (cocaine) treatment. To this end, GCaMP6m, which reports calcium fluctuations and serves as a proxy for neuronal activity, was virally delivered into the NAc of Tac2-Cre mice using known techniques^41, and the fluorescence signal was monitored by a skull-attached miniaturized microscope through a gradient-index (GRIN) lens implanted above the virus injection site (FIG. 2B, FIGS. 1C-1D). […] After extracting calcium signal traces and corresponding calcium signal transients of individual neurons from raw imaging video (FIG. 2C, FIG. 1E), the Tac2 neuronal response to saline and cocaine administration was analyzed. The calcium transient frequency from 6 mice (saline: 361 neurons, cocaine 356 neurons) were sorted and presented as heatmaps (FIG. 2D). […] The neuronal activity of cocaine excited/inhibited Tac2^+ neurons in the initial phase were substantially altered following cocaine injection and later partially recovered in the decay phase (FIG. 2I). To further validate these findings, calcium activity traces were analyzed before and after saline or cocaine injection. 3.0-fold more cocaine inhibited neurons than cocaine excited neurons in the initial phase (FIGS. 1F-1H).
Two weeks after GRIN lens implantation surgery, a baseplate was implanted to mount the miniature microscope and to check the fluorescence signal. Freely moving in vivo imaging can be performed after the nVoke microscope (Inscopix) is attached to the fixed baseplate. All recordings were made at 10 frames per second, LED intensities were 0.6˜1.2 mW, and gain (1.5×) was used. The calcium traces were extracted using Inscopix Data Processing Software (version 1.6, Inscopix). The raw recording videos were cropped, spatially down-sampled (2×), spatially filtered (cut-offs: low 0.005 pixel^−1, high 0.500 pixel^−1), and motion-corrected (using a reference frame from the input movie). The spatial location of individual neurons and their associated calcium activity signals were identified using the extended constrained non-negative matrix factorization (CNMF-E) CNMF-c algorithm^53,54 and outputted temporal traces as dF over noise. The identified neurons were manually checked to exclude overlapping neurons, blood vessels, or fluorescent debris moving in and out of focus. The calcium signal traces were further deconvolved using OASIS (online active set method to infer spikes) methods to estimate underlying calcium signal transients. The data matrix containing calcium signal traces and calcium signal transients were subjected to custom MATLAB code for further analysis.
Mice were tested in the homecages and were pre-habituated in the test room and they received 3-day saline injection to reduce stress. On day 1, mice were attached with nVoke microscope 30 minutes before experiment. Prior to injection, 10 minute baseline was recorded, then mice were intraperitoneally injected with saline, and a 10 minute recording was performed after the injection. On day 2, mice were again attached with n Voke microscope, and recorded for 10 minute baseline. Then mice were injected with cocaine (15 mg/kg) intraperitoneally. The post-injection initial phase (0-10 minutes) and decay phase (50-60 minutes) were recorded. Two data sets of neuronal activity were used: calcium signal traces over time or calcium signal transients over time, to analyze treatment (saline or cocaine injection) responsive neurons (excited or inhibited by treatment), 10-minute windows of pre- and post-injection were compared. For saline injection responsive neurons, saline (−10-0 minutes) and saline (0-10 minutes) responses of the two groups were compared. For cocaine injection responsive neurons, the initial phase (0-10 minutes) and the decay phase (50-60 minutes) were compared with the pre-injection phase (−10-0 minutes). […]

NAc Tac2+ neurons [9] = assay: Single-cell calcium imaging during cocaine-conditioned place preference; format: in vivo, mice; conditions: post-conditioning
Description: Next, the dynamics of Tac2 neuronal activity was analyzed during cocaine reward-contextual association. To this end, single-cell calcium imaging was applied to a cocaine-conditioned place preference (CPP) test (FIG. 3A). In the pre-conditioning session, mice were allowed to freely explore the two chambers with differential contextual patterns while calcium signal being recorded. In the conditioning sessions, mice were given alternate saline and cocaine (15 mg/kg) injections (6 hours apart) and were confined to a specific chamber paired with saline or cocaine. In the post-conditioning session, mice were again allowed to freely explore the two chambers while calcium signal being recorded (FIG. 3A). […] After extracting the calcium signal traces, and corresponding calcium signal transients of individual neurons in pre-conditioning and post-conditioning sessions, signal traces or transient frequencies were compared during the periods when mice are in saline-coupled chamber or cocaine-coupled chamber (staying time>5 seconds). […] To further validate these findings, calcium activity traces were analyzed when mice stayed in the saline chamber or cocaine chamber. […] Moreover, by focusing on the short period around the mice entering the cocaine chamber (−5 seconds to 5 seconds, regarding the entering as 0 second), it was determined that the neuronal activity of the cocaine chamber excited neurons (neurons with […] calcium signal in cocaine chamber) increased rapidly when mice entered the cocaine chamber, while the cocaine chamber inhibited neurons (neurons with […] calcium signal in cocaine chamber) decreased their activity when mice entered the cocaine chamber (FIGS. 3F-3G).
Custom-made two-compartment CPP chambers (50×25×25 cm, L×D×H) were used with visual cues: the floor and the walls of one chamber were decorated with black horizontal stripes and the other chamber was decorated with yellow diagonal stripes. The modified cocaine-CPP consists of three sessions. […] The time spent in different chambers was recorded, the less preferred chamber was assigned as the cocaine chamber and used to condition cocaine injections, while the other chamber was assigned as the saline chamber and used to condition saline injections. […] Finally, the next day following conditioning, in the post-condition recording session, calcium activity of mice was again recorded while freely exploring the two chambers for 15 minutes. The mouse trajectories were recorded using a webcam (Logitech) with top view, and the time when the mice staying or entering chambers was analyzed using Etho Vision XT 11 (Noldus) and was also manually inspected. […]

[10] = after administration; cited from earlier work
Tac2 mRNA = assay: Cocaine-CPP after shRNA knock-down of Tac2 in NAc; format: in vivo, mice; conditions: AAV Tac2 shRNA vs control shRNA, bilateral NAc injection
Description: Numbers were calculated by summating Tac2^+ cells in serial 3 slides of the NAc region of individual mice (˜Bregma+1.2). […] Mice were subjected to 2-days conditioning, with each morning given saline injection followed by confined to saline-coupled chamber for 30 minutes, and in the afternoon, mice were given cocaine injection followed by confined to cocaine chamber for 30 minutes. Left: time spent in the cocaine-paired chambers pre- and post-conditioning, ****, p<0.0001, paired t-test. Right: the CPP scores were calculated by subtracting the time spent in pre-conditioning phase from the time spent in post-conditioning phase, ns, p=0.0975, unpaired t-test. […] FIGS. 10G-10I show dose-dependent response under cocaine-IVSA of Tac2 knockdown mice. The numbers of lever presses (FIG. 10G). Lever accuracy (FIG. 10H), and numbers of infusions (FIG. 10I) are shown. Data in FIGS. 10B-10I are presented as mean±SEM.
Using calcium recording and neuronal activity manipulation, a causal relationship has been established between Tac2 neuronal activity and cocaine-associated behaviors (CPP and IVSA). It was then explored how Tac2^+ neurons might execute their functions. […]
Small hairpin RNA (shRNA) for mouse Tac2 gene (NM_009312.2) were selected based on previous studies^50. […] The AAV viruses were injected into NAc regions and knock-down efficiency were evaluated by Tac2 RNA FISH.

[11] = decay phase 50-60 minutes, calcium transient frequency
[12] = initial phase 0-10 minutes, calcium transient frequency, 356 neurons, 6 mice

In the case of C[N+]1([O-])CCN(C2=Nc3cc(Cl)ccc3Nc3ccccc32)CC1 [CNO, clozapine-N-oxide], the “cFos induction in hM3Dq-expressing neurons” value [1] is reported as “resulted in cFos induction”, the “cFos induction in mCherry-expressing (control) neurons” value [1] is reported as “not in the mCherry-expressing neurons” and the “cFos induction in hM4Di-expressing neurons following cocaine exposure” value [2] is reported as “significantly decreased”. The “cocaine-induced CPP” value [3] was “completely abolished”, the “cocaine CPP in hM4Di-expressing vs mCherry-expressing mice” value [4] was “significantly higher” and the basal locomotion [5] was “affected neither basal locomotion”. The cocaine-induced hyperlocomotion [5] was “nor cocaine-induced hyperlocomotion”, the “cocaine infusions, hM3Dq vs mCherry group” value [6] was “fewer cocaine infusions” and the “lever accuracy, hM3Dq vs mCherry group” value ([6]; 0.33 mg/kg/infusion) was “reduced lever accuracy”. For the same molecule, the “lever presses, hM3Dq vs mCherry group” value ([6]; cocaine 0.03, 0.1, 0.3, 1 mg/kg/infusion) was “significantly fewer lever presses”, the “cocaine infusions, hM4Di vs mCherry group” value [7] was “significantly lower number of cocaine infusions” and the “lever presses, hM4Di vs mCherry group” value [7] was “significantly higher number of lever presses”. The “lever accuracy, hM4Di vs mCherry group” value ([7]; 0.33 mg/kg/infusion) was “comparable lever accuracy”.

For COC(=O)[C@H]1[C@@H](OC(=O)c2ccccc2)C[C@@H]2CC[C@H]1N2C [cocaine], the “initial phase cocaine excited neurons still excited in the decay phase” value (NAc Tac2+ neurons [8]; 29/49 neurons) was 59.2%, the “initial phase cocaine inhibited neurons still inhibited in the decay phase” value (NAc Tac2+ neurons [8]; 30/117 neurons) was 25.6% and the “recorded Tac2+ neurons showing decreased activity” value (NAc Tac2+ neurons [8]; [11]) was 14.9%. For the same molecule, the “recorded Tac2+ neurons showing increased activity” value (NAc Tac2+ neurons [8]; [11]) was 11.5%, the “recorded Tac2+ neurons showing decreased activity” value (NAc Tac2+ neurons [8]; [12]) was 32.9% and the “recorded Tac2+ neurons showing increased activity” value (NAc Tac2+ neurons [8]; [12]) was 13.8%. For the same molecule, the “cocaine inhibited neurons compared to cocaine excited neurons” value (NAc Tac2+ neurons [8]; initial phase, calcium activity traces) was 3.0 fold, the “Tac2+ neurons inhibited by cocaine compared to those excited” value (NAc Tac2+ neurons [8]; initial phase, calcium transient frequency) was 2.4 fold and the “neurons excited in the cocaine chamber” value (NAc Tac2+ neurons [9]; calcium activity traces, 40 of 370) was 10.8%. For the same molecule, the “neurons inhibited in the cocaine chamber” value (NAc Tac2+ neurons [9]; calcium activity traces, 59 of 370) was 16.0%, the “Tac2+ neurons with elevated activity in the cocaine chamber” value (NAc Tac2+ neurons [9]; calcium transient frequency, 16 of 370) was 4.3% and the “Tac2+ neurons with reduced activity in the cocaine chamber” value (NAc Tac2+ neurons [9]; calcium transient frequency, 62 of 370) was 16.8%. The “decay of cocaine levels in brain and plasma” value [10] was “decay one hour later” and the “time to peak of cocaine levels in brain and plasma” value [10] was at most 10 min.

B1: Tac2-shRNA: AAV construct expressing small hairpin RNA for mouse Tac2 gene (SEQ ID NO: 3, 4) (nucleic acid, listed as Mus musculus)
sense: GATCCGCCGCCTCAACCCCATAGCAATTAGAAGCTTGTAATTGCTATGGGGTTGAGGCTTTTTTT
In the case of B1, the cocaine-induced place preference (Tac2 mRNA) is reported as “neither affected”.
